Data reported in PubChem BioAssay AID1259407 (Chemical Carcinogenesis Research Information System (CCRIS), 2018).
Activity calls are given as the source filed them. No rule for the calls is given here.

Test system: CCRIS mutagenicity, Ames/micronucleus/aberration tests
Test: CCRIS mutagenicity studies
Details: Method: PREINCUBATION
[1] = Test System: AMES SALMONELLA TYPHIMURIUM, Strain/Indicator: TA98, Metabolic Activation: NONE
[2] = Test System: AMES SALMONELLA TYPHIMURIUM, Strain/Indicator: TA100, Metabolic Activation: NONE
[3] = Test System: AMES SALMONELLA TYPHIMURIUM, Strain/Indicator: TA1535, Metabolic Activation: NONE

For Cc1cccc(N)c1C, the mutagenic call (Test System: AMES SALMONELLA TYPHIMURIUM, Strain/Indicator: TA97, Metabolic Activation: HAMSTER, LIVER, S-9, AROCLOR 1254 (10%)) was “inactive; negative”, the mutagenic call (Test System: AMES SALMONELLA TYPHIMURIUM, Strain/Indicator: TA97, Metabolic Activation: NONE) was “inactive; negative” and the mutagenic call (Test System: AMES SALMONELLA TYPHIMURIUM, Strain/Indicator: TA97, Metabolic Activation: RAT, LIVER, S-9, AROCLOR 1254 (10%)) was “inactive; negative”. The mutagenic call (Test System: AMES SALMONELLA TYPHIMURIUM, Strain/Indicator: TA98, Metabolic Activation: HAMSTER, LIVER, S-9, AROCLOR 1254 (10%)) was “active; positive”, the mutagenic call [1] was “inactive; negative” and the mutagenic call (Test System: AMES SALMONELLA TYPHIMURIUM, Strain/Indicator: TA98, Metabolic Activation: RAT, LIVER, S-9, AROCLOR 1254 (10%)) was “inactive; negative”. For the same compound, the mutagenic call (Test System: AMES SALMONELLA TYPHIMURIUM, Strain/Indicator: TA100, Metabolic Activation: HAMSTER, LIVER, S-9, AROCLOR 1254 (10%)) was “active; positive”, the mutagenic call [2] was “inactive; negative” and the mutagenic call (Test System: AMES SALMONELLA TYPHIMURIUM, Strain/Indicator: TA100, Metabolic Activation: RAT, LIVER, S-9, AROCLOR 1254 (10%)) was “inactive; negative”. The mutagenic call (Test System: AMES SALMONELLA TYPHIMURIUM, Strain/Indicator: TA1535, Metabolic Activation: HAMSTER, LIVER, S-9, AROCLOR 1254 (10%)) was “inactive; negative”, the mutagenic call [3] was “inactive; negative” and the mutagenic call (Test System: AMES SALMONELLA TYPHIMURIUM, Strain/Indicator: TA1535, Metabolic Activation: RAT, LIVER, S-9, AROCLOR 1254 (10%)) was “inactive; negative”.

For Cc1ccccc1S(N)(=O)=O, the mutagenic call [1] was “inactive; negative”, the mutagenic call (Test System: AMES SALMONELLA TYPHIMURIUM, Strain/Indicator: TA98, Metabolic Activation: RAT LIVER S-9, PHENOBARBITAL AND BETA-NAPHTHOFLAVONE) was “inactive; negative” and the mutagenic call [2] was “inactive; negative”. For the same compound, the mutagenic call (Test System: AMES SALMONELLA TYPHIMURIUM, Strain/Indicator: TA100, Metabolic Activation: RAT LIVER S-9, PHENOBARBITAL AND BETA-NAPHTHOFLAVONE) was “inactive; negative”, the mutagenic call [3] was “inactive; negative” and the mutagenic call (Test System: AMES SALMONELLA TYPHIMURIUM, Strain/Indicator: TA1535, Metabolic Activation: RAT LIVER S-9, PHENOBARBITAL AND BETA-NAPHTHOFLAVONE) was “inactive; negative”. The mutagenic call (Test System: AMES SALMONELLA TYPHIMURIUM, Strain/Indicator: TA1537, Metabolic Activation: NONE) was “inactive; negative”, the mutagenic call (Test System: AMES SALMONELLA TYPHIMURIUM, Strain/Indicator: TA1537, Metabolic Activation: RAT LIVER S-9, PHENOBARBITAL AND BETA-NAPHTHOFLAVONE) was “inactive; negative” and the mutagenic call (Test System: AMES SALMONELLA TYPHIMURIUM, Strain/Indicator: TA1538, Metabolic Activation: NONE) was “inactive; negative”. For the same compound, the mutagenic call (Test System: AMES SALMONELLA TYPHIMURIUM, Strain/Indicator: TA1538, Metabolic Activation: RAT LIVER S-9, PHENOBARBITAL AND BETA-NAPHTHOFLAVONE) was “inactive; negative”, the mutagenic call (Test System: E.COLI, Strain/Indicator: WP2UVRA/PKM101, Metabolic Activation: NONE) was “inactive; negative” and the mutagenic call (Test System: E.COLI, Strain/Indicator: WP2UVRA/PKM101, Metabolic Activation: RAT LIVER S-9, PHENOBARBITAL AND BETA-NAPHTHOFLAVONE) was “inactive; negative”. For the same compound, the mutagenic call (Test System: E.COLI, Strain/Indicator: WP2UVRA, Metabolic Activation: NONE) was “inactive; negative” and the mutagenic call (Test System: E.COLI, Strain/Indicator: WP2UVRA, Metabolic Activation: RAT LIVER S-9, PHENOBARBITAL AND BETA-NAPHTHOFLAVONE) was “inactive; negative”.
